Results taken from patent publication US11584765B2 (priority 2017, dated 2023).
Counter-ions that a name gives are not always drawn.

Test system: C57BL/6 mice
Assay: animal or person
Type: in vivo
Conditions: Mus musculus, sc, 0.5 h, s.c. administration, 30 min, 55° C. water, read-out: ED50 (mg/kg) at 30 min on C57BL/6 mice in Warm-water Tail-flick Test

| Compound | ED50 |
| --- | --- |
| CCOCC1(CCc2cccs2)CCN(Cc2cnn(CC)c2)CC1 [Compound 256, 4-(ethoxymethyl)-1-((l-ethyl-1H-pyrazol-4-yl)methyl)-4-(2-(thiophen-2-yl)ethyl)piperidine] | < 10 mg/kg |
| Cc1cncc(CN2CCC(CCc3ccccc3)(C3CCCO3)C2)c1 (stereo not shown) [Compound 257, 3-methyl-5-((3-phenethyl-3-(tetrahydrofuran-2-yl)pyrrolidin-1-yl)methyl)pyridine] | < 10 mg/kg |
| Cc1ccncc1CN1CCC(CCc2ccccc2)(C2CCCO2)C1 (stereo not shown) [Compound 262, 4-methyl-3-((3-phenethyl-3-(tetrahydrofuran-2-yl)pyrrolidin-1-yl)methyl)pyridine] | > 10 mg/kg |
| Cc1ncccc1CN1CCC(CCc2ccccc2)(C2CCCO2)C1 (stereo not shown) [Compound 263, 2-methyl-3-((3-phenethyl-3-(tetrahydrofuran-2-yl)pyrrolidin-1-yl)methyl)pyridine] | < 10 mg/kg |
| Cc1ccc(CN2CCC(CCc3ccccc3)(C3CCCO3)C2)cn1 (stereo not shown) [Compound 264, 2-methyl-5-((3-phenethyl-3-(tetrahydrofuran-2-yl)pyrrolidin-1-yl)methyl)pyridine] | < 10 mg/kg |
| c1ccc(CCC2(C3CCCO3)CCN(Cc3cnn(-c4cccnc4)c3)C2)cc1 (stereo not shown) [Compound 265, 3-(4-((3-phenethyl-3-(tetrahydrofuran-2-yl)pyrrolidin-1-yl)methyl)-1H-pyrazol-1-yl)pyridine] | > 10 mg/kg |
| CCOCC1(CCc2ccc(C)s2)CCN(Cc2cnn(C)c2)CC1 [Compound 266, 4-(ethoxymethyl)-1-((1-methyl-1H-pyrazol-4-yl)methyl)-4-(2-(5-methylthiophen-2-yl)ethyl)piperidine] | > 10 mg/kg |
| CCOCC1(CCc2cc(C)cs2)CCN(Cc2cnn(C)c2)CC1 [Compound 267, 4-(ethoxymethyl)-1-((1-methyl-1H-pyrazol-4-yl)methyl)-4-(2-(4-methylthiophen-2-yl)ethyl)piperidine] | < 10 mg/kg |
| CCOCC1(CCc2sccc2C)CCN(Cc2cnn(C)c2)CC1 [Compound 268, 4-(ethoxymethyl)-1-((1-methyl-1H-pyrazol-4-yl)methyl)-4-(2-(3-methylthiophen-2-yl)ethyl)piperidine] | < 10 mg/kg |
| CCOC[C@@]1(CCc2ccccc2)CCN(Cc2cccnc2)C1 [Compound 269] | < 10 mg/kg |
| CCOCC1(CCc2cccs2)CCN(Cc2cnn(C(C)C)c2)CC1 [Compound 270, 4-(ethoxymethyl)-1-((1-isopropyl-1H-pyrazol-4-yl)methyl)-4-(2-(thiophen-2-yl)ethyl)piperidine HCl] | > 10 mg/kg |
| CCOCC1(CCc2cccs2)CCN(Cc2cnn(Cc3ccccc3)c2)CC1 [Compound 271, 1-((1-benzyl-1H-pyrazol-4-yl)methyl)-4-(ethoxymethyl)-4-(2-(thiophen-2-yl)ethyl)piperidine] | > 10 mg/kg |
| C1=CC(C2(CCc3ccsc3)CCN(Cc3cccnc3)C2)OC1 (stereo not shown) [Compound 272, 3-((3-(2,5-dihydrofuran-2-yl)-3-(2-(thiophen-yl)ethyl)pyrrolidin-1-yl)methyl)pyridine] | < 10 mg/kg |
| Cc1ccc(CN2CCC(CCc3ccccc3)(C3CCCO3)C2)c(C)n1 (stereo not shown) [Compound 273, 2,6-dimethyl-3-((3-phenethyl-3-(tetrahydrofuran-2-yl)pyrrolidin-1-yl)methyl)pyridine] | < 10 mg/kg |
| COc1ccc(CN2CCC(CCc3ccccc3)(C3CCCO3)C2)cn1 (stereo not shown) [Compound 274, 2-methoxy-5-((3-phenethyl-3-(tetrahydrofuran-2-yl)pyrrolidin-1-yl)methyl)pyridine] | > 10 mg/kg |
| CCOC[C@@]1(CCc2cccs2)CCN(Cc2cccnc2)C1 [Compound 275, (S)-3-((3-(ethoxymethyl)-3-(2-(thiophen-2-yl)ethyl)pyrrolidin-1-yl)methyl)pyridine] | < 10 mg/kg |
| CCOCC1(CCc2ccccc2)CCN(Cc2ccc(C)nc2)C1 (stereo not shown) [Compound 276, 5-((3-(ethoxymethyl)-3-phenethylpyrrolidin-1-yl)methyl)-2-methylpyridine] | < 10 mg/kg |
| CCOCC1(CCc2ccsc2)CCN(Cc2ccc(C)nc2)C1 (stereo not drawn) [Compound 277, 5-((3-(ethoxymethyl)-3-(2-(thiophen-3-yl)ethyl)pyrrolidin-l-yl)methyl)-2-methylpyridine] | < 10 mg/kg |
| CCOCC1(CCc2ccsc2C)CCN(Cc2cnn(C)c2)CC1 [Compound 278, 4-(ethoxymethyl)-1-((1-methyl-1H-pyrazol-4-yl)methyl)-4-(2-(2-methylthiophen-3-yl)ethyl)piperidine] | < 10 mg/kg |
| CCOCC1(CCc2csc(C)c2)CCN(Cc2cnn(C)c2)CC1 [Compound 279, 4-(ethoxymethyl)-1-((1-methyl-1H-pyrazol-4-yl)methyl)-4-(2-(5-methylthiophen-3-yl)ethyl)piperidine] | > 10 mg/kg |
| CCOCC1(CCc2cscc2C)CCN(Cc2cnn(C)c2)CC1 [Compound 280, 4-(ethoxymethyl)-1-((1-methyl-1H-pyrazol-4-yl)methyl)-4-(2-(4-methylthiophen-3-yl)ethyl)piperidine] | < 10 mg/kg |
| CCOCC1(CCc2cc(C)sc2C)CCN(Cc2cnn(C)c2)CC1 [Compound 281, 4-(2-(2,5-dimethylthiophen-3-yl)ethyl)-4-(ethoxymethyl)-1-((1-methyl-1H-pyrazol-4-yl)methyl)piperidine] | > 10 mg/kg |

| Compound | ED50 |
| --- | --- |
| CCOCC1(CCc2c(C)csc2C)CCN(Cc2cnn(C)c2)CC1 [Compound 282, 4-(2-(2,4-dimethylthiophen-3-yl)ethyl)-4-(ethoxymethyl)-1-((1-methyl-1H-pyrazol-4-yl)methyl)piperidine] | > 10 mg/kg |
| CCOCC1(CCc2sccc2C)CCN(Cc2cccnc2)C1 (stereo not shown) [Compound 283, 3-((3-(ethoxymethyl)-3-(2-(3-methylthiophen-2-yl)ethyl)pyrrolidin-1-yl)methyl)pyridine] | < 10 mg/kg |
| CCOCC1(CCc2cc(C)cs2)CCN(Cc2cccnc2)C1 (stereo not shown) [Compound 284, 3-((3-(ethoxymethyl)-3-(2-(4-methylthiophen-2-yl)ethyl)pyrrolidin-1-yl)methyl)pyridine] | < 10 mg/kg |
| CCOCC1(CCc2ccc(C)s2)CCN(Cc2cccnc2)C1 (stereo not shown) [Compound 285, 3-((3-(ethoxymethyl)-3-(2-(5-methylthiophen-2-yl)ethyl)pyrrolidin-1-yl)methyl)pyridine] | > 10 mg/kg |
| CCOCC1(CCc2ccsc2C)CCN(Cc2cccnc2)C1 (stereo not shown) [Compound 286, 3-((3-(ethoxymethyl)-3-(2-(2-methylthiophen-yl)ethyl)pyrrolidin-1-yl)methyl)pyridine] | < 10 mg/kg |
| CCOCC1(CCc2csc(C)c2)CCN(Cc2cccnc2)C1 (stereo not shown) [Compound 287, 3-((3-(ethoxymethyl)-3-(2-(5-methylthiophen-yl)ethyl)pyrrolidin-1-yl)methyl)pyridine] | < 10 mg/kg |
| CCOCC1(CCc2cscc2C)CCN(Cc2cccnc2)C1 (stereo not shown) [Compound 288, 3-((3-(ethoxymethyl)-3-(2-(4-methylthiophen-yl)ethyl)pyrrolidin-1-yl)methyl)pyridine] | < 10 mg/kg |
| CCOCC1(CCc2ccc(Cl)cc2)CCN(Cc2cccnc2)C1 (stereo not shown) [Compound 289, 3-((3-(4-chlorophenethyl)-3-(ethoxy-methyl)pyrrolidin-1-yl)methyl)pyridine] | > 10 mg/kg |
| CCOCC1(CCc2ccc(F)cc2)CCN(Cc2cccnc2)C1 (stereo not shown) [Compound 290, 3-((3-(ethoxy-methyl)-3-(4-fluoro-phenethyl)pyrrolidin-1-yl)methyl)pyridine] | < 10 mg/kg |
| CCOCC1(CCc2ccc(C)cc2)CCN(Cc2cccnc2)C1 (stereo not shown) [Compound 291, 3-((3-(ethoxymethyl)-3-(4-methyl-phenethyl)pyrrolidin-1-yl)methyl)pyridine] | > 10 mg/kg |
| CCOCC1(CCc2ccc(OC)cc2)CCN(Cc2cccnc2)C1 (stereo not shown) [Compound 292, 3-((3-(ethoxymethyl)-3-(4-methoxy-phenethyl)pyrrolidin-1-yl)methyl)pyridine] | > 10 mg/kg |
| C1=CC(C2(CCc3cccs3)CCN(Cc3cccnc3)CC2)OC1 (stereo not shown) [Compound 293, 3-((4-(2,5-dihydrofuran-2-yl)-4-(2-(thiophen-2-yl)ethyl)piperidin-1-yl)methyl)pyridine] | > 10 mg/kg |
| CCOCC1(CCc2ccccc2)CCN(C(C)c2ccc(C)nc2)C1 (stereo not shown) [Compound 294, 5-(1-(3-(ethoxymethyl)-3-phenethyl-pyrrolidin-1-yl)ethyl)-2-methylpyridine] | < 10 mg/kg |
| CCOCC1(CCc2ccc(F)cc2)CCN(C(C)c2ccc(C)nc2)C1 (stereo not shown) [Compound 295, 5-(1-(3-(ethoxymethyl)-3-(4-fluoro-phenethyl)pyrrolidin-1-yl)ethyl)-2-methylpyridine] | < 10 mg/kg |
| CCOCC1(CCc2ccc(F)cc2)CCN(Cc2ccc(C)nc2)C1 (stereo not shown) [Compound 296, 5-((3-(ethoxymethyl)-3-(4-fluoro-phenethyl)pyrrolidin-1-yl)methyl)-2-methylpyridine] | < 10 mg/kg |
| CCOCC1(CCc2cc(C)cs2)CCN(Cc2ccc(C)nc2)C1 (stereo not shown) [Compound 297, 5-((3-(ethoxymethyl)-3-(2-(4-methylthiophen-2-yl)ethyl)pyrrolidin-1-yl)methyl)-2-methylpyridine] | < 10 mg/kg |
| CCOCC1(CCc2ccccc2)CCN(C(CC)c2ccc(C)nc2)C1 (stereo not shown) [Compound 298, 5-(1-(3-(ethoxymethyl)-3-phenethylpyrrolidin-1-yl)propyl)-2-methylpyridine] | < 10 mg/kg |
| CCOCC1(CCc2cc(C)cs2)CCN(Cc2ccc(C)nc2)CC1 [Compound 299, 5-((4-(ethoxymethyl)-4-(2-(4-methylthiophen-2-yl)ethyl)piperidin-1-yl)methyl)-2-methylpyridine] | < 10 mg/kg |
| CCOCC1(CCc2ccc(F)s2)CCN(Cc2ccc(C)nc2)C1 (stereo not shown) [Compound 300, 5-((3-(ethoxymethyl)-3-(2-(5-fluorothiophen-2-yl)ethyl)pyrrolidin-1-yl)methyl)-2-methylpyridine] | < 10 mg/kg |
| CCOCC1(CCc2cc3ccccc3s2)CCN(Cc2ccc(C)nc2)C1 (stereo not shown) [Compound 301, 5-((3-(2-(benzo[b]thiophen-2-yl)ethyl)-3-(ethoxy-methyl)pyrrolidin-1-yl)methyl)-2-methylpyridine] | > 10 mg/kg |
| CCOCC1(CCc2csc3ccccc23)CCN(Cc2ccc(C)nc2)C1 (stereo not shown) [Compound 302, 5-((3-(2-(benzo[b]thiophen-3-yl)ethyl)-3-(ethoxy-methyl)pyrrolidin-1-yl)methyl)-2-methylpyridine] | < 10 mg/kg |
